Measurements taken from US20260335299A1, “SUBSTITUTED OXOISOINDOLINYL PIPERIDINE-2,6-DIONE COMPOUND AS ANTICANCER AGENT” (BRISTOL-MYERS SQUIBB COMPANY, priority 2023, published 2026).
Like-named read-outs stand apart in the source and are kept apart here.

Tests used:
Format in all cases: cell-based
IKZF2 Helios [1] = target: T1, IKZF2 Helios (Homo sapiens, UniProt Q96SW2+Q9UKS7); assay: Human Regulatory T Cell Reprogramming Assay (Helios); design: Human CD4+ T cells were isolated from fresh healthy leukopaks; endogenous in cells; host or cells: FACS-sorted primary human regulatory T cells from healthy leukopaks
Experimental: (§1) Human CD4+ T cells were isolated from fresh healthy leukopaks (Stemcell Technologies) using the RosetteSep Human CD4+ T cell enrichment cocktail (Stemcell Technologies) and Ficoll density gradient centrifugation. Leukopaks were diluted with an equal volume of phosphate-buffered saline (PBS [Gibco]) supplemented with 2% fetal bovine serum (FBS, VWR Lifescience) and incubated with RosetteSep Human CD4^+ T cell enrichment cocktail for 20 minutes before layering on Ficoll-Paque Plus solution (GE Health Care). The cell-rich interface layer was harvested and washed twice with PBS supplemented with 2% FBS. Regulatory T cells were then isolated manually using the EasySep Human CD4^+CD1271WCD25^+ Regulatory T cell isolation kit (Stemcell Technologies) according to the manufacturer's instructions. Cells were rested overnight in Roswell Park Memorial Institute (RPMI) 1640 media (Gibco) supplemented with 10% FBS, Pen/Strep (Gibco), MEM-NEAA (Gibco), and sodium pyruvate (Gibco) in a humidified incubator (37° C., 5% CO2). Cells were then stained for CD4 (clone: RPA-T4, Biolegend), CD25 (clone: 2A3, BD Biosciences), and CD127 (clone: hIL-7R-M21, BD Biosciences). CD4+CD12710WCD25+ cells were sorted on a BD FACS Aria Fusion sorter to a purity of 95% or greater. Sorted cells were immediately used or cryopreserved for downstream assays.
(§2) Fresh or cryopreserved FACS-sorted CD4+CD127^lowCD25^+ Treg cells were cultured at 25,000-50,000 cells/well of 96-well round bottom plates in RPMI 1640 media (Gibco) supplemented with 10% FBS, Pen/Strep (Gibco), MEM-NEAA (Gibco), and sodium pyruvate (Gibco). Cells were stimulated with Treg Xpander beads (Thermo Fisher) at cells-to-beads ratio of 1:4 in the presence of 500 U/mL recombinant human IL-2 (Proleukin). Compounds were added at titrated doses and cells were incubated at 37° C., 5% CO2 for 12-13 days. Recombinant human IL-2 and compound were replenished every 2-3 days during the entire culture duration. On day 12 or 13, cells were restimulated with phorbol 12-myristate 13-acetate (PMA) and ionomycin in the presence of the protein transport inhibitors brefeldin A and monensin (eBioscience Cell Stimulation Cocktail plus protein transport inhibitors, 500×, Catalog number 00-4975-93) before proceeding with flow cytometry staining and analysis.
(§3) For flow cytometry staining, cells were washed twice with flow cytometry staining buffer (Thermo Fisher) and incubated in Human Tru-stain Fc block (Biolegend) for 10 minutes before adding eFluor780 viability dye (Thermo Fisher) and surface marker antibody cocktail for 30 minutes at 4° C. […] Data were analyzed using FlowJo version 10 and GraphPad Prism Software.
(§4) Table C-1 lists the maximum observed degradation of the IKZF2 protein and IKZF4 protein as measured in the Human Regulatory T Cell Reprogramming assay. […]

IKZF4 Eos = target: T2, IKZF4 Eos (Homo sapiens, UniProt Q96SW2+Q9H2S9); assay: Human Regulatory T Cell Reprogramming Assay (Eos)
T2 construct: Human CD4+ T cells were isolated from fresh healthy leukopaks; endogenous in cells; host or cells: FACS-sorted primary human regulatory T cells from healthy leukopaks
Experimental: as §1, §2, §3, §4

IKZF2 Helios [2] = target: T1, IKZF2 Helios; assay: Jurkat Cellular Degradation Assay (Helios); design: endogenous in cells; host or cells: Jurkat cells; settings: Jurkat cells, 72 h
Experimental: Jurkat cells were plated at 80,000 cells/well in 40 μL RPMI+10% FBS in a 384-well cell culture plate prior to using acoustic dispensing technology for adding a compound of interest. Cell cultures were incubated for 72 h at 37° C. and 5% CO2. In order to facilitate analysis, cell cultures were spun down at 200 rpm for 5 min and the supernatant was discarded. After shaking the plate to dislodge the cell pellet, cells were resuspended in 50 μL of Fixation Buffer (eBioscience FoxP3 buffer set 00-5523-00) for 60 min at room temperature. After centrifuging and discarding the supernatant, cells were permeabilized with 50 μL of Permeabilization buffer (eBioscience FoxP3 buffer set 00-5523-00) for 10 min at room temperature. […] Stained cells were resuspended in 25 μL of flow cytometry staining buffer [PBS+0.2% bovine serum albumin (BSA)] and analyzed using an Intellicyt Ique Plus flow cytometer.
Table A-1 lists the maximum observed degradation of the IKZF1 protein, IKZF2 protein, and IKZF3 protein as measured in the Jurkat Cellular Degradation assay. […]

[3] = human Treg cells, stimulated, 12-13 days, concentration reducing protein level by 50% compared to DMSO alone

T1 sequence (Q9UKS7 whole entry): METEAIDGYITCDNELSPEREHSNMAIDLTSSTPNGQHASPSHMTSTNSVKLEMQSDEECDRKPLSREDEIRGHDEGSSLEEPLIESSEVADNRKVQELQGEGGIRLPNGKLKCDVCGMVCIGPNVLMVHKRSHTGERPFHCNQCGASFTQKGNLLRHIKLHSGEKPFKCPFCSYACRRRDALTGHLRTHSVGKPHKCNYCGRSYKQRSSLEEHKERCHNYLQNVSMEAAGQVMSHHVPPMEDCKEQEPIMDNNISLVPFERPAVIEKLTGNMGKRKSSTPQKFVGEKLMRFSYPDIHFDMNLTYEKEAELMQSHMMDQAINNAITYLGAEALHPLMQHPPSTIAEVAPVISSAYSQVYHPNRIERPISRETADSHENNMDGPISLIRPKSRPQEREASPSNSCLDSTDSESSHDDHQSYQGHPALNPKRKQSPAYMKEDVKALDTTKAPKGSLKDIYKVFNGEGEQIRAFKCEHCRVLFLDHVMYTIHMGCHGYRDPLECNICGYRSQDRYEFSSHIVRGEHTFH
T1 sequence (Q96SW2 whole entry): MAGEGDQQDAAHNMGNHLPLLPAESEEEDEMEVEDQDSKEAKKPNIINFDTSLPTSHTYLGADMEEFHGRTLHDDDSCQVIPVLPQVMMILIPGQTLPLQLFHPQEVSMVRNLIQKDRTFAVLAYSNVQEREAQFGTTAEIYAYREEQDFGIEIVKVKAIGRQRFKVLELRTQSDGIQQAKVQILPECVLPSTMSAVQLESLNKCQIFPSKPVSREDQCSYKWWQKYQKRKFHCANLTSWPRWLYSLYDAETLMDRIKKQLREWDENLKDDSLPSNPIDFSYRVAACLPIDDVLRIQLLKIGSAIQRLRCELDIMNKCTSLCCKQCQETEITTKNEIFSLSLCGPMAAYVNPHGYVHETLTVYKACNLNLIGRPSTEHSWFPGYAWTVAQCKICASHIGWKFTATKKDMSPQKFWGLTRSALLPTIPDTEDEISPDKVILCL
T1 sequence (Q16531 whole entry partner): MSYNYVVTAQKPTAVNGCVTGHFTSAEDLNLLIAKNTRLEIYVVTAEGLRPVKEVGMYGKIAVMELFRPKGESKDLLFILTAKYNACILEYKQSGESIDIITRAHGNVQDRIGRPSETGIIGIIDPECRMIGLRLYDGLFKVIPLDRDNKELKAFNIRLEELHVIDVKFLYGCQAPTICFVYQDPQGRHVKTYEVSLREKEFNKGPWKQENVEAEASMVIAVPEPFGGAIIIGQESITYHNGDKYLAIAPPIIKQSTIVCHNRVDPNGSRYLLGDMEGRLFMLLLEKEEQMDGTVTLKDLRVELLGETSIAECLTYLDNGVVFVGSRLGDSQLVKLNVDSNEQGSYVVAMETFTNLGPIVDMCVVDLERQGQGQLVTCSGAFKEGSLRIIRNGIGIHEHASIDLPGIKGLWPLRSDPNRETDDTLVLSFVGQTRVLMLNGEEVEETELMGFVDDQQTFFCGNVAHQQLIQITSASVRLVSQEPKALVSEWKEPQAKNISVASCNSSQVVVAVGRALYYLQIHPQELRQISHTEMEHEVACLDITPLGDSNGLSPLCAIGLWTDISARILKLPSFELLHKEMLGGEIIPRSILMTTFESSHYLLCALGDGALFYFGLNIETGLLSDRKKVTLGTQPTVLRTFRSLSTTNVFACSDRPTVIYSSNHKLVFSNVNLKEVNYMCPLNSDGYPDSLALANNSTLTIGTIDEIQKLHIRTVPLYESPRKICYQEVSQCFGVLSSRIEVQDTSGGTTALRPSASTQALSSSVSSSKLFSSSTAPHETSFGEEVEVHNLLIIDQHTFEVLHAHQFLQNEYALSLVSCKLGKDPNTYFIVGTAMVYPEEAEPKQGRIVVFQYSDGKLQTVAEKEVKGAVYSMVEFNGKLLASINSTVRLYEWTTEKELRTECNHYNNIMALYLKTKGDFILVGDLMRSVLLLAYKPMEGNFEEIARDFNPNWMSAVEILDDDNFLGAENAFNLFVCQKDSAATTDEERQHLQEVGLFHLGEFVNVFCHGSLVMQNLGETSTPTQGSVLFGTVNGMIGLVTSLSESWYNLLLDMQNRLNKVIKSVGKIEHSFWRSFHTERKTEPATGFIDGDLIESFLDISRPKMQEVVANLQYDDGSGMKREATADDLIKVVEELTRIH
T2 sequence (Q9H2S9 whole entry): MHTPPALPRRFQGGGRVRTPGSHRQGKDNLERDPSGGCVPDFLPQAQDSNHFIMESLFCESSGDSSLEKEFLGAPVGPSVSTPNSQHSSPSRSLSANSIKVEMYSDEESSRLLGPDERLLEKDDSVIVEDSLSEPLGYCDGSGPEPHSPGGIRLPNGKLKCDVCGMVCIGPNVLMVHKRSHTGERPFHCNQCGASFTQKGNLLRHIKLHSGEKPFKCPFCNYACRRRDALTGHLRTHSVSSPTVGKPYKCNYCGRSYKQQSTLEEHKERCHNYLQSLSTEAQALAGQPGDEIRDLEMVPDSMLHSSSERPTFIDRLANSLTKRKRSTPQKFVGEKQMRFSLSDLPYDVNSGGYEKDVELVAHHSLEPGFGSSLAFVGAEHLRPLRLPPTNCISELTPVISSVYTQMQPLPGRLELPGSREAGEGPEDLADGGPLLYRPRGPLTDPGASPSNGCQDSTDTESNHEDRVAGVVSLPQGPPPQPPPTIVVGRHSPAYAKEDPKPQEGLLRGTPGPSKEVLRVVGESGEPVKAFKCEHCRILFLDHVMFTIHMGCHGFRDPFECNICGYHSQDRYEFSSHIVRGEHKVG
T2 sequence (Q96SW2 whole entry): as the sequence (Q96SW2 whole entry) above
T2 sequence (Q16531 whole entry partner): as the sequence (Q16531 whole entry partner) above

- Dmax (IKZF2 Helios [1]; Regulatory T cell, human, text summary of Table C-1, read-out: decreased the level of the IKZF2 (Helios) protein): ≥ 81%
- Dmax (IKZF2 Helios [1]; Regulatory T cell, human Treg cells, stimulated, 12-13 days, read-out: IKZF2 Helios Maximum Observed Degradation): 81 to 86%
- DC50 (IKZF2 Helios [1]; [3]): 36 to 172 nM
- Dmax (IKZF2 Helios [1]; summary table, Human T Regulatory Cell Reprogramming Assay (Table C-1), read-out: IKZF2 Helios max % deg. observed (Table E)): 81 to 86%
- Dmax (IKZF4 Eos; Regulatory T cell, human, text summary of Table C-1, read-out: decreased the level of IKZF4 (Eos)): ≥ 71%
- Dmax (IKZF4 Eos; Regulatory T cell, human Treg cells, stimulated, 12-13 days, read-out: IKZF4 Eos Maximum Observed Degradation): 71 to 72%
- DC50 (IKZF4 Eos; [3]): 1.3 to 1.6 nM
- Dmax (IKZF4 Eos; summary table, Human T Regulatory Cell Reprogramming Assay (Table C-1), read-out: IKZF4 Eos max % deg. observed (Table E)): 71 to 72%
- DC50 (IKZF2 Helios [2]; concentration reducing protein level by 50% compared to DMSO alone): 4.4 nM
- Dmax (IKZF2 Helios [2]; human, read-out: IKZF2 Helios max % deg. observed): 92%
SMILES: Nc1nc(-c2ccc3c(c2F)CN(C2CCC(=O)NC2=O)C3=O)ccc1CN1CC(C2CCC(F)(F)CC2)C1 (stereo not shown) [Example 1, 3-(5-(6-Amino-5-((3-(4,4-difluorocyclohexyl)azetidin-1-yl)methyl)pyridin-2-yl)-4-fluoro-1-oxoisoindolin-2-yl) piperidine-2,6-dione]
